We go through 14 compounds from patent US9586948B2, “Inhibitors of IRAK4 activity” (MERCK SHARP & DOHME CORP., priority 2012, dated 2017).

The term IC50 denotes the concentration that inhibits the measured activity by half. Read a high IC50 as weaker potency in that assay.

In this experiment the target is GST tagged IRAK4 (Homo sapiens (Human), UniProt Q9NWZ3). The experiment can be described thus: Determination of IRAK4 kinase activity (IMAP fluorescence polarization). The format is biochemical. The following applies: 0.5 nM GST tagged IRAK4, 100 nM fluorescent peptide substrate RP7030, 100 μM ATP, 30 minutes at 25° C. The procedure: The kinase activity of IRAK4 is determined by its ability to catalyze the phosphorylation of a fluorescent polypeptide substrate. The extent of phosphorylation is measured using IMAP technology (Molecular Devices) where the phosphorylated fluorescent substrate binds to the large M(III)-based nanoparticles which reduces the rotational speed of the substrate and thus increases its fluorescent polarization (FP).
Chain of GST tagged IRAK4 (Q9NWZ3 whole entry): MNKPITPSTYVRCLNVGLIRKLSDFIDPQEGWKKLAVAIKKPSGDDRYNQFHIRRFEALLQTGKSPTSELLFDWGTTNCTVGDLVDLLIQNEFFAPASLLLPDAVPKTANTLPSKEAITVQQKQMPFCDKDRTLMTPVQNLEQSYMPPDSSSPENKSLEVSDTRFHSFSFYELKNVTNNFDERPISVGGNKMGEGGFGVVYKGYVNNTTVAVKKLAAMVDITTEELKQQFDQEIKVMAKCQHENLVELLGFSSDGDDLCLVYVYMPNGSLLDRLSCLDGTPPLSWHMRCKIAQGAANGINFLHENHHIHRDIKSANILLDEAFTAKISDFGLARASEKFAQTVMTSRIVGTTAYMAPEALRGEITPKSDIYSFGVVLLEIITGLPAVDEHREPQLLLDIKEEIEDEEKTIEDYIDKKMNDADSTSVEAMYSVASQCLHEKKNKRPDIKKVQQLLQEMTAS
Procedure: A 20 μl reaction mixture contains 10 mM TriHCl, pH 7.2, 0.5 nM GST tagged IRAK4 (SignalChem), 100 nM fluorescent peptide substrate (RP7030, Molecular Devices), 100 μM ATP, 1 mM DTT, 1 mM MgCl2, and 0.01% Tween 20. The reaction is initiated by the addition of ATP. After incubation for 30 minutes at 25° C., 60 μl of Progressive IMAP Reagent (Molecular Devices) is added to stop the reaction. Change in RP7030's FP is determined by a FP reader (Analyst HT, LJL BioSystems).
On the technique in general: In fluorescence polarisation assays a small probe gives low polarisation when free and higher when bound to something large.

`CN(C)CCCCCNC(=O)c1nn(C)cc1NC(=O)c1cccc(-c2ccnc(NCC3CC3)c2)n1` [Example 37, 2′-((cyclopropylmethyl)amino)-N-(3-((5-(dimethylamino)pentyl)carbamoyl)-1-methyl-1H-pyrazol-4-yl)-[2,4′-bipyridine]-6-carboxamide] came in with a concentration for half-maximal inhibition (IC50) of 2190 nM.
The result for `Cn1cc(NC(=O)c2cccc(-c3ccnc(NCC4CC4)c3)n2)c(C(=O)NCCc2ccccn2)n1` [Example 38, 2′-((cyclopropylmethyl)amino)-N-(1-methyl-3-((2-(pyridin-2-yl)ethyl)carbamoyl)-1H-pyrazol-4-yl)-[2,4′-bipyridine]-6-carboxamide] reads 4970 nM; that for `CN1CCN(C(=O)c2nn(C)cc2NC(=O)c2cccc(-c3ccnc(NCC4CC4)c3)n2)CC1` [Example 39, 2′-((cyclopropylmethyl)amino)-N-(1-methyl-3-(4-methylpiperazine-1-carbonyl)-1H-pyrazol-4-yl)-[2,4′-bipyridine]-6-carboxamide], 2910 nM; that for `CN(C)CCCNC(=O)c1nn(C)cc1NC(=O)c1cccc(-c2ccnc(NCC3CC3)c2)n1` [Example 40, 2′-((cyclopropylmethyl)amino)-N-(3-((3-(dimethylamino)propyl)carbamoyl)-1-methyl-1H-pyrazol-4-yl)-[2,4′-bipyridine]-6-carboxamide], 535 nM.
Take `Cn1cc(NC(=O)c2cccc(-c3ccnc(NCC4CC4)c3)n2)c(C(=O)N2CC(CN)C2)n1` [Example 42, N-(3-(3-(aminomethyl)azetidine-1-carbonyl)-1-methyl-1H-pyrazol-4-yl)-2′-((cyclopropylmethyl)amino)-[2,4′-bipyridine]-6-carboxamide]: the half-maximal inhibitory concentration (IC50) is 190 nM.
Then `Cn1cc(NC(=O)c2cccc(-c3ccnc(NCC4CC4)c3)n2)c(C(=O)Nc2cncnc2)n1` [Example 43, 2′-((cyclopropylmethyl)amino)-N-(1-methyl-3-(pyrimidin-5-ylcarbamoyl)-1H-pyrazol-4-yl)-[2,4′-bipyridine]-6-carboxamide], with 1580 nM; and `Cn1cc(NC(=O)c2cccc(-c3ccnc(NCC4CC4)c3)n2)c(C(=O)NCCc2cnccn2)n1` [Example 44, 2′-((cyclopropylmethyl)amino)-N-(1-methyl-3-((2-(pyrazin-2-yl)ethyl)carbamoyl)-1H-pyrazol-4-yl)-[2,4′-bipyridine]-6-carboxamide], with 2670 nM; and `Cn1cc(NC(=O)c2cccc(-c3ccnc(NCC4CC4)c3)n2)c(C(=O)NCC2CCS(=O)(=O)C2)n1` (centres unmarked) [Example 45, 2′-((cyclopropylmethyl)amino)-N-(3-(((1,1-dioxidotetrahydrothiophen-3-yl)methyl)carbamoyl)-1-methyl-1H-pyrazol-4-yl)-[2,4′-bipyridine]-6-carboxamide], with 3620 nM.
Take `CN(C)[C@H]1CN(C(=O)c2nn(C)cc2NC(=O)c2cccc(-c3ccnc(NCC4CC4)c3)n2)C[C@@H]1O` [Example 46, 2′-((cyclopropylmethyl)amino)-N-(3-((3S,4S)-3-(dimethylamino)-4-hydroxypyrrolidine-1-carbonyl)-1-methyl-1H-pyrazol-4-yl)-[2,4′-bipyridine]-6-carboxamide]: the half-inhibitory concentration (IC50) was found to be 186 nM.
Then `Cn1cc(NC(=O)c2cccc(-c3ccnc(NCC4CC4)c3)n2)c(C(=O)NCc2ccncn2)n1` [Example 47, 2′-((cyclopropylmethyl)amino)-N-(1-methyl-3-((pyrimidin-4-ylmethyl)carbamoyl)-1H-pyrazol-4-yl)-[2,4′-bipyridine]-6-carboxamide], with 4380 nM; and `Cn1cc(NC(=O)c2cccc(-c3ccnc(NCC4CC4)c3)n2)c(C(=O)NCc2nncs2)n1` [Example 48, N-(3-(((1,3,4-thiadiazol-2-yl)methyl)carbamoyl)-1-methyl-1H-pyrazol-4-yl)-2′-((cyclopropylmethyl)amino)-[2,4′-bipyridine]-6-carboxamide], with 2430 nM.
For the compound `CN1CCCC(CNC(=O)c2nn(C)cc2NC(=O)c2cccc(-c3ccnc(NCC4CC4)c3)n2)C1` (centres unmarked) [Example 49, 2′-((cyclopropylmethyl)amino)-N-(1-methyl-3-(((1-methylpiperidin-3-yl)methyl)carbamoyl)-1H-pyrazol-4-yl)-[2,4′-bipyridine]-6-carboxamide], the concentration for half-maximal inhibition (IC50) came to 260 nM.
Turning to `Cn1cc(NC(=O)c2cccc(-c3ccnc(NCC4CC4)c3)n2)c(C(=O)NCCn2cccn2)n1` [Example 50, N-(3-((2-(1H-pyrazol-1-yl)ethyl)carbamoyl)-1-methyl-1H-pyrazol-4-yl)-2′-((cyclopropylmethyl)amino)-[2,4′-bipyridine]-6-carboxamide], it took 2680 nM to reach half-maximal inhibition (IC50).
Then `Cn1cc(NC(=O)c2cccc(-c3ccnc(NCC4CC4)c3)n2)c(C(=O)NC2CCOC2)n1` (centres unmarked) [Example 51, 2′-((cyclopropylmethyl)amino)-N-(1-methyl-3-((tetrahydrofuran-3-yl)carbamoyl)-1H-pyrazol-4-yl)-[2,4′-bipyridine]-6-carboxamide], with 2280 nM.
